# pEC50, pIC50: −log10 of the molar value. Activity calls are given as the source filed them. The rule behind the calls is not given here.
# Columns and labels:
# [1] = molecular target: T1, Muscarinic acetylcholine receptor M1 (Homo sapiens) (UniProt P11229); assay: Intrinsic activity at human muscarinic M1 receptor expressed in CHO cells assessed as effect on acetylcholine-induced intracellular calcium level by FLIPR assay relative to acetylcholine; type: functional, cell-based
# T1 sequence (whole entry): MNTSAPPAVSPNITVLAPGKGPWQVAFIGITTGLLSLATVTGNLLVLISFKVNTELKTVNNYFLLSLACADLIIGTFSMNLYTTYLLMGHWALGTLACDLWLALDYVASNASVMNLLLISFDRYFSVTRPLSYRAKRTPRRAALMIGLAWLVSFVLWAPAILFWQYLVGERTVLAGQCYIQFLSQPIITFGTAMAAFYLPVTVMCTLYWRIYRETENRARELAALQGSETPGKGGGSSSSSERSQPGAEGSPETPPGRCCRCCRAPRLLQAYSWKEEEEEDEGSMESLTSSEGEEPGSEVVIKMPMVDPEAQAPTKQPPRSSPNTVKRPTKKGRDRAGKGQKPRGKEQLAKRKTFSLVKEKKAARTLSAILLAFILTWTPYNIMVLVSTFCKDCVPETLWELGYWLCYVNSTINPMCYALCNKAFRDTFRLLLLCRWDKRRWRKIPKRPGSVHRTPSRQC
# [2] = molecular target: T2, Muscarinic acetylcholine receptor M5 (Homo sapiens) (UniProt P08912); assay: Agonist activity at human muscarinic M5 receptor expressed in CHO cells assessed as effect on acetylcholine-induced intracellular calcium level by FLIPR assay; type: functional, cell-based
# T2 sequence (whole entry): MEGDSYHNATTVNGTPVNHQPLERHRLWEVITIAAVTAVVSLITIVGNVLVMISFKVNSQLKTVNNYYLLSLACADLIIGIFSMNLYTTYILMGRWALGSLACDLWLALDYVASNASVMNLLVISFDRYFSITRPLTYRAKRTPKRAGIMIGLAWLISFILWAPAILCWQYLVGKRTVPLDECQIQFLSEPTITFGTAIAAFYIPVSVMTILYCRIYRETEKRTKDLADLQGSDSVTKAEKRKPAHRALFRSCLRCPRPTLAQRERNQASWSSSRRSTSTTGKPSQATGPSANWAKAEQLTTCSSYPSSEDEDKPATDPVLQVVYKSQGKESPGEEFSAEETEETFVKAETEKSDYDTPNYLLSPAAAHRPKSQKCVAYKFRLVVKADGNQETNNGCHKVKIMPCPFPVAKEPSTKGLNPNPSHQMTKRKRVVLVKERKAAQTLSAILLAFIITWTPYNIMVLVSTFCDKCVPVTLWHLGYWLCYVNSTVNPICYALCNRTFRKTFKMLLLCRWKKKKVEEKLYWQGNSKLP
# [3] = molecular target: T3, Muscarinic acetylcholine receptor M4 (Homo sapiens, UniProt P08173); assay: Inhibition of human muscarinic M4 receptor expressed in CHO cells; type: cell-based
# T3 sequence (P08173 whole entry): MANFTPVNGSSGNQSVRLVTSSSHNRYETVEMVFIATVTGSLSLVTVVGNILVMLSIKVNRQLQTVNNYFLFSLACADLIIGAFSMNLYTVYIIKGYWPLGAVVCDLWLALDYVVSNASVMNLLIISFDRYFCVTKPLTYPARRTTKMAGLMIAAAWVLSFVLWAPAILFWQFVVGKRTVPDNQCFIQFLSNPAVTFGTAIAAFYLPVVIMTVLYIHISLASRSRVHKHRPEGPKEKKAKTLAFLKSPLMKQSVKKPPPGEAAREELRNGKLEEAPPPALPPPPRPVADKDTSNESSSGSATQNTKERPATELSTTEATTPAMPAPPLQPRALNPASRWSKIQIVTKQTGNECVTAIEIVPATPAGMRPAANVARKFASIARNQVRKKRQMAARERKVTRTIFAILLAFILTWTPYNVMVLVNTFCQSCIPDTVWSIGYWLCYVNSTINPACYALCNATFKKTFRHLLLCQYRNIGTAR
# [4] = molecular target: T4, Muscarinic acetylcholine receptor M5 (Homo sapiens, UniProt P08912); assay: Inhibition of human muscarinic M5 receptor expressed in CHO cells; type: cell-based
# T4 sequence (P08912 whole entry): T2 sequence (whole entry)
# [5] = molecular target: T5, Muscarinic acetylcholine receptor M3 (Homo sapiens, UniProt P20309); assay: Agonist activity at human muscarinic M3 receptor expressed in CHO cells assessed as effect on acetylcholine-induced intracellular calcium level by FLIPR assay; type: functional, cell-based
# Target sequence in this assay (P20309 whole entry, looked up): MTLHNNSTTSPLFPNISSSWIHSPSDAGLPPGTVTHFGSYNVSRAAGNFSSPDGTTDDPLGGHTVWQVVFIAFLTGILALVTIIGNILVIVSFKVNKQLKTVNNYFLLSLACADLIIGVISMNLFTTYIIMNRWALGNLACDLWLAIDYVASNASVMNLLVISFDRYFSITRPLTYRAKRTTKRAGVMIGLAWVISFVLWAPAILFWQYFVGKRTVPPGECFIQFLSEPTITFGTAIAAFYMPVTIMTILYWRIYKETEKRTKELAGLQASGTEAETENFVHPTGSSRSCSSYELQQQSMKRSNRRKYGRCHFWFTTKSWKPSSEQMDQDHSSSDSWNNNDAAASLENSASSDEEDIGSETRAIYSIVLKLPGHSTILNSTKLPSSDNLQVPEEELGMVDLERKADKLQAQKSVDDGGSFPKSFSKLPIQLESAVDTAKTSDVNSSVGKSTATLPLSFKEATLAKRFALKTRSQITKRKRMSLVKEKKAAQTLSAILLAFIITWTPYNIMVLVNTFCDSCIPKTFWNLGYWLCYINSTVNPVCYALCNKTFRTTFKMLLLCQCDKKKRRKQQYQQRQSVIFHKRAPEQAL
# [6] = molecular target: T6, Muscarinic acetylcholine receptor M2 (Homo sapiens) (UniProt P08172); assay: Agonist activity at human muscarinic M2 receptor expressed in CHO cells assessed as effect on acetylcholine-induced intracellular calcium level by FLIPR assay; type: functional, cell-based
# T6 sequence (whole entry): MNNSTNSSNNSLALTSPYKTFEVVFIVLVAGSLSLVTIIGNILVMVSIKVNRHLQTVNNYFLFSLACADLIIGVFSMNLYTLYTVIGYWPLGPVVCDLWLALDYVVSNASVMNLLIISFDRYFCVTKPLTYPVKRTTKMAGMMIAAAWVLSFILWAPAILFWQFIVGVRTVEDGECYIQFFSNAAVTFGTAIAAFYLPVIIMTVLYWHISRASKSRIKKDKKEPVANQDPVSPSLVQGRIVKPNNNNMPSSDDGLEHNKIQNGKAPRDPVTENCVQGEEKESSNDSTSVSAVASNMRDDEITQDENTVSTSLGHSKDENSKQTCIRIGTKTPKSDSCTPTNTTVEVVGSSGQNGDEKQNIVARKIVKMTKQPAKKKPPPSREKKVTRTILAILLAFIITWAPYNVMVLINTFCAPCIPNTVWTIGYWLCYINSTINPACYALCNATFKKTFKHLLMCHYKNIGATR
# [7] = molecular target: T7, Muscarinic acetylcholine receptor M2 (Homo sapiens, UniProt P08172); assay: Inhibition of human muscarinic M2 receptor expressed in CHO cells; type: cell-based
# T7 sequence (P08172 whole entry): T6 sequence (whole entry)
# [8] = molecular target: T5, Muscarinic acetylcholine receptor M3; assay: Inhibition of human muscarinic M3 receptor expressed in CHO cells; type: cell-based
# Target sequence in this assay (P20309 whole entry): as the sequence (P20309 whole entry, looked up) above
# [9] = molecular target: T8, Muscarinic acetylcholine receptor M1 (Homo sapiens, UniProt P11229); assay: Agonist activity at human muscarinic M1 receptor expressed in CHO cells assessed as effect on acetylcholine-induced intracellular calcium level by FLIPR assay; type: functional, cell-based
# T8 sequence (P11229 whole entry): T1 sequence (whole entry)
# [10] = molecular target: T9, Muscarinic acetylcholine receptor M4 (Homo sapiens) (UniProt P08173); assay: Agonist activity at human muscarinic M4 receptor expressed in CHO cells assessed as effect on acetylcholine-induced intracellular calcium level by FLIPR assay; type: functional, cell-based
# T9 sequence (whole entry): T3 sequence (P08173 whole entry)
# [11] = molecular target: Muscarinic acetylcholine receptor M1 and M3 (Homo sapiens) (UniProt P20309+P11229); assay: Selectivity ratio of EC50 for human muscarinic M3 receptor to EC50 for human muscarinic M1 receptor
# Chain of Muscarinic acetylcholine receptor M1 and M3 (Homo sapiens) (P20309 whole entry, looked up, one chain of several): as the sequence (P20309 whole entry, looked up) above
# Homo sapiens [12] = organism: Homo sapiens; assay: Selectivity ratio of EC50 for human muscarinic M5 receptor to EC50 for human muscarinic M1 receptor
# Homo sapiens [13] = organism: Homo sapiens; assay: Selectivity ratio of EC50 for human muscarinic M4 receptor to EC50 for human muscarinic M1 receptor
# [14] = molecular target: Muscarinic acetylcholine receptors; M1 & M2 (Homo sapiens) (UniProt P11229+P08172); assay: Selectivity ratio of EC50 for human muscarinic M2 receptor to EC50 for human muscarinic M1 receptor
Intrinsic activity [1],Activity [2],pIC50 [3],pIC50 [4],Activity [5],Activity [6],pIC50 [7],pIC50 [8],pEC50 [9],Activity [10],Ratio EC50 [11],Ratio EC50 (Homo sapiens [12]),Ratio EC50 (Homo sapiens [13]),Ratio EC50 [14],SMILES
86%,inactive,5.30,< 5.00,inactive,inactive,5.10,5.40,7.20,inactive,,,,,O=C(NCC1CCNCC1)c1ccccc1-c1cccc(Cl)c1
111%,,5.80,5.30,,,5.70,6.00,8.00,,100,100,100,100,O=C(NCC1CCNCC1)c1ccccc1-c1cc(Cl)ccc1F
99%,inactive,5.50,< 5.00,inactive,inactive,5.40,5.90,7.70,inactive,100,100,100,100,CC1CNCCC1CNC(=O)c1ccccc1-c1cccc(Cl)c1 (centres undefined)
